{"source": "the NIST ThermoML archive (doi:10.1021/je900137r)", "assay": "Molar enthalpy of transition or fusion", "conditions": "Crystal; Adiabatic calorimetry", "note": "Numbers after ± are expanded uncertainties."}
{"smiles": "CCC", "note": "[propane]", "values": [{"measurement": "Molar enthalpy of transition or fusion", "value": "0.838 ± 0.00956", "unit": "kcal/mol"}]}
